The values below come from patent US20230255972A1, “PYRIMIDINE COMPOUND-CONTAINING COMBINATION TO BE USED IN TUMOR TREATMENT” (TAIHO PHARMACEUTICAL CO., LTD., priority 2020, published 2023).

For data set [1], the system named is MCF10A_EGFR/H773_V774insNPH cells. Put plainly: Growth inhibitory activity against MCF10A_EGFR/H773_V774insNPH. The data set is classed as cell-based. The conditions noted are these: Homo sapiens, 72 h; 3 days; read-out: Cell growth inhibitory activity GI 50 value, MCF10A_EGFR/H773_V774insNPH cell. How it is done:
(§1) Test Example 7 Measurement of Growth Inhibitory Activity Against EGFR Overexpressing Cell Line and Exon 20 Insertion Mutant EGFR Expressing Cell Line
(§2) Growth inhibitory activity against an EGFR overexpressing cell line and an exon 20 insertion mutant EGFR expressing cell line was evaluated using MDA-MB-468 cells (ATCC) as an EGFR overexpressing human breast cancer cell line; NCI-H1975 cells (ATCC) as L858R and T790M mutant EGFR-positive human lung cancer cells; and MCF10A_EGFR cells, MCF10A_EGFR/V769_D770insASV cells, MCF10A_EGFR/D770_N771insSVD cells, and MCF10A_EGFR/H773_V774insNPH cells (Fukushima Medical University) which were cells obtained by introducing the EGFR gene (WT, […], D770_N771insSVD mutant, H773_V774insNPH mutant) into MCF10A cells as human normal mammary gland cells.
(§3) The MDA-MB-468 cells were suspended in Leibovitz's L-15 medium containing 10% inactivated fetal bovine serum. The NCI-H1975 cells were suspended in RPMI-1640 medium containing 10% inactivated fetal bovine serum. The MCF10A_EGFR cells, the MCF10A_EGFR/V769_D770insASV cells, the MCF10A_EGFR/D770_N771insSVD cells, or the MCF10A_EGFR/H773_V774insNPH cells were suspended in DMEM/Ham's F-12 medium (containing L-glutamine, phenol red, HEPES, and sodium pyruvate) containing 10 μg/mL insulin, 500 ng/mL hydrocortisone, 5 μmol/L forskolin, and 5% inactivated horse serum in terms of their final concentrations. Each cell suspension was seeded in each well of a 96-well flat-bottom plate such that the number of cells per well was 500, and was then cultured in a carbon dioxide gas-free culture vessel for the MDA-MB-468 cells and in a 5% carbon dioxide gas-containing culture vessel for the other cells at 37° C. for 1 day. The pyrimidine compound of the present invention was prepared at 1 mM in DMSO and then diluted 1/200 with a medium to prepare a 5 μM solution. […]
(§4) The cells at the start of the culture (day 0) and after the culture (day 3) were counted using CellTiter-Glo(R) 2.0 Reagent (Promega Corp.) according to the protocol recommended by the manufacturer. […]

Data set [2] has as its target T1, human HER2 exon 20 insertion mutant (A775_G776insYVMA) protein (Homo sapiens, UniProt P04626, INS775YVMA).
T1 construct: purchased SignalChem
Put plainly: Inhibitory action (in vitro) against HER2 exon 20 insertion mutant phosphorylation activity. The format is biochemical. The conditions noted are these: pre-incubated 30 minutes, ATP 200 μM, 25°C, 220 minutes; read-out: HER2ex20insYVMA inhibitory activity IC50 value.

The next data set deals with MDA-MB-468 cells. As to the kind of experiment: Growth inhibitory activity against EGFR overexpressing cell line MDA-MB-468. The data set is classed as cell-based. The following applies: Homo sapiens, MDA-MB-468, 72 h, read-out: Cell growth inhibitory activity GI 50 value, MDA-MB-468; 3 days. How it is done: as §1, §2, §3, §4
Data set [3] relates to H1975-EGFRinsSVD cell line. As to the kind of experiment: Antitumor effect (in vivo) on subcutaneous transplantation models of H1975-EGFRinsSVD. Also noted: species or system nude mouse. The conditions noted are these: Days 1-14. How it is done: Test Example 12 Antitumor Effect Confirmation Test (In Vivo) on Subcutaneous Transplantation Models, into which H1975-EGFRinsSVD Cell Line is Transplanted
The test compound used was the compounds of Examples 2, 11, and 12, and a 0.5% HPMC aqueous solution was used as a control. The compounds of Examples 2, 11 and 12 were orally administered at doses of 25 mg/kg/day, 25 mg/kg/day and 50 mg/kg/day, respectively.
To compare the transition of tumor growth over time by the administration of each test compound, a tumor volume (which is also referred to as “TV” below) was measured at a frequency of twice a week over time. […] A body weight change percentage is also referred to as “BWC” below.
BWCn (%)=((body weight on n^th day)−(body weight on grouping day)]/[(body weight on grouping day)×100

For the next data set, the system named is NCI-H1975 cells. As to the kind of experiment: Growth inhibitory activity against NCI-H1975 (L858R and T790M mutant EGFR-positive). The format is cell-based. The following applies: Homo sapiens, NCI-H1975, 72 h; 3 days; read-out: Cell growth inhibitory activity GI 50 value, NCI-H1975. The procedure:
as §1, §2, §3, §4

In another data set the test system is MCF10A_EGFR cells. Put plainly: Growth inhibitory activity against MCF10A_EGFR (EGFR-WT). The data set is classed as cell-based. The following applies: Homo sapiens, 72 h; 3 days; read-out: Cell growth inhibitory activity GI 50 value, MCF10A_EGFR cell (EGFR-WT). The procedure: as §1, §2, §3, §4

Each structure is given as a SMILES string.

T1 sequence (P04626 with tags, fused parts or gaps INS775YVMA limits assumed): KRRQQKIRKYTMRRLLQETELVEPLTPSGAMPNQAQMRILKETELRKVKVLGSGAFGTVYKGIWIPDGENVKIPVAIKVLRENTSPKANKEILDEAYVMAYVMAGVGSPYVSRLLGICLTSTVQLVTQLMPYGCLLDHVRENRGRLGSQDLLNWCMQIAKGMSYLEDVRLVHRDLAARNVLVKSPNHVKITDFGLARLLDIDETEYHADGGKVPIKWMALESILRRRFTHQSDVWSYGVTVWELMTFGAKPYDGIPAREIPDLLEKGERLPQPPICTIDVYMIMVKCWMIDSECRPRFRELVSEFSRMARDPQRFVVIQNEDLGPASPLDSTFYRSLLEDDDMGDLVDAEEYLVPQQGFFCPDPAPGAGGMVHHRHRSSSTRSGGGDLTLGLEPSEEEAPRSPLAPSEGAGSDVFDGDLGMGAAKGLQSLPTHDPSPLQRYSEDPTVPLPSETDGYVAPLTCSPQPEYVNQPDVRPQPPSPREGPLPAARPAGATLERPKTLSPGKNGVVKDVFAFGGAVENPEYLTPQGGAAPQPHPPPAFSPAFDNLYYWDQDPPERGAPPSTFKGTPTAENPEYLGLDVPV

Regarding `C=CC(=O)N1C[C@H](n2c(C#CC)c(C(=O)N[C@H](C)c3ccccc3)c3c(N)ncnc32)C[C@@H]1C` [Example 2, 7-((3R,5S)-1-acryloyl-5-methylpyrrolidin-3-yl)-4-amino-N—((R)-1-phenylethyl)-6-(prop-1-yn-1-yl)-7H-pyrrolo[2,3-d]pyrimidine-5-carboxamide], the GI50 amounted to 16 nM in data set [1], 81 nM in the data set with MDA-MB-468 cells, 77 nM in the data set on NCI-H1975 cells and 55 nM with MCF10A_EGFR cells. Further, the concentration for half-maximal inhibition (IC50) in data set [2] was less than 0.3 nM. Further, the “body weight reduction of 20% or more” value in data set [3] (25 mg/kg/day po) is given as “not observed”.
On to `C=CC(=O)N1C[C@H](n2c(C#CC3CC3)c(C(=O)N[C@H](C)c3ccccc3)c3c(N)ncnc32)C[C@@H]1C` [Example 11, 7-((3R,5S)-1-acryloyl-5-methylpyrrolidin-3-yl)-4-amino-6-(cyclopropylethynyl)-N—((R)-1-phenylethyl)-7H-pyrrolo[2,3-d]pyrimidine-5-carboxamide], for which the GI50 in data set [1] was determined as 18 nM; in the data set on MDA-MB-468 cells, 99 nM; in the data set with NCI-H1975 cells, 87 nM; in the data set with MCF10A_EGFR cells, 81 nM. The 50% inhibitory concentration (IC50) in data set [2] was less than 0.3 nM. In addition, the “body weight reduction of 20% or more” value in data set [3] (25 mg/kg/day po) was “not observed”.
As to `C=CC(=O)N1C[C@H](n2c(C#CC(C)(C)C)c(C(=O)N[C@H](C)c3ccccc3)c3c(N)ncnc32)C[C@@H]1C` [Example 12, 7-((3R,5S)-1-acryloyl-5-methylpyrrolidin-3-yl)-4-amino-6-(3,3-dimethylbut-1-yn-1-yl)-N—((R)-1-phenylethyl)-7H-pyrrolo[2,3-d]pyrimidine-5-carboxamide], the GI50 is 50 nM in data set [1], 221 nM in the data set with MDA-MB-468 cells, 153 nM in the data set on NCI-H1975 cells and 206 nM with MCF10A_EGFR cells. Besides, the IC50 in data set [2] amounted to 0.39 nM. Besides, the “body weight reduction of 20% or more” value in data set [3] (50 mg/kg/day po) is recorded as “not observed”.

A word on the IC50: it is the concentration needed to halve the response being measured.
